In PMC4189421, “Induction of Oligodendrocyte Differentiation and In Vitro Myelination by Inhibition of Rho-Associated Kinase” (ASN NEURO, 2014):
Where two headings read alike, the source gives them in different places.

Legend:
Assay type in all cases: cell-based
mouse-derived OPCs = assay: Myelin protein mRNA expression in mouse-derived OPCs (qPCR); conditions: mouse-derived OPCs exposed for 4 days
Description: Neurospheres (Nph) were prepared from embryos at 14.5 days of gestation obtained from timed pregnant females of C57/Bl6 mice, as previously described ([Kornblum, Yanni, Easterday, & Seroogy, 2000]; [Pedraza, Monk, Lei, Hao, & Macklin, 2008]). In brief, after separation of meninges and cerebellum, cerebrum tissue was mechanically triturated with a 1-ml micropipette until total tissue dissociation was achieved, filtered through a 70 -µm cell strainer (Fisher Scientific, Pittsburgh, PA), and plated in 25-cm^2 plastic culture flasks (2 brains/flask). Nph proliferation media (NPM) consisted of Dulbecco’s Modified Eagle Medium (DMEM)/F12, B27 neuronal supplement (Gibco, Baltimore, MD) and 10 ng/ml […] (EGF; Sigma, St. Louis, MO). After 48 to 72 hr, floating Nphs were passaged at a 1 : 1 ratio into 75-cm^2 culture flasks. After a further 48 to 72 hr, they were passaged into 150-cm^2 flasks. […]
Total RNA was isolated from single-cell cultures or tissue explants using Tri-Zol reagent (Gibco). cDNA was generated from 1 to 3 µg of total RNA by Retrotranscriptase II (Gibco) reaction, and the selected transcripts were detected and amplified by quantitative RT-PCR in an Applied Biosystems (Grand Island, NY) 7500 fast qPCR machine, following the manufacturer’s instructions. […]

[1] = system: human pluripotent stem cell-derived OPCs (hSC-OPCs); assay: Human stem cell-derived OPC differentiation assay (O4 staining, ArrayScan); conditions: for EC50: Homo sapiens
Description: Human oligodendrocytes were generated by a proprietary methodology of […] (Weizmann Science Park, Nes-Ziona, Israel; […].com). In brief, 5,000 human embryonic stem cell-derived OPCs (hES-OPCs) were seeded in each well of Matrigel and PDL-coated 96-well black μClear plates (Greiner, Frickenhausen, Germany). […] Twenty-four hours after seeding, medium was removed, and 200 μl of DIF fresh medium containing the compound of interest at a specific dilution (in 0.1% DMSO) was supplemented to the cells (first feeding). Total volume for each well was 200 μl. Four replicates were used for each dose of compound under study. After 48 hr, the media were replenished by removing 100 μl of media, and the same amount of fresh DIF media was added to the wells. Only at the first feeding, DIF media with 0.1% DMSO were used as control of the compound in medium containing 0.1% DMSO. Two experimental sets were conducted for the differentiation assay. On Day 21, live staining of oligodendrocytes was done by incubating the cells with O4 antibody (R&D Systems, Minneapolis, MN) for 20 min followed by detection with goat anti-mouse IgM-FITC (Chemicon) for additional 20 min. Cells were washed twice using DIF media. Immediately after, cells were fixed using 4% paraformaldehyde, and then washed with 1 × PBS, and 4',6-diamidino-2-phenylindole (DAPI; Sigma) was used for nuclear staining. […] Cellomics Neural profiling bioapplication was used for processing and analyzing the images. The 4-parameter Hill-Slope curve fittings were generated by GraphPad Prism software using the least squares fitting method, and EC50 values were calculated for the three major parameters of oligodendrocyte differentiation: number of differentiated oligodendrocytes, number of oligodendrocyte processes, and oligodendrocytes processes length (μm). The negative control groups of each experimental set were used for data normalization. We additionally studied the effect of ROCK inhibition in cultures of OPCs of human origin. […]

mouse Nph-OPCs = assay: Cell proliferation as number of Hoechst-labeled nuclei; conditions: 1 µM; n = 3 in triplicate wells; DMSO: 522 ± 126
Text: To determine the effects of ROCK inhibition on OPCs, we developed a high-content image morphological analysis of OPC differentiation using mouse embryonic neural progenitor-derived OPCs (Nph-OPCs). Neural progenitors grow as nonadherent spheroids known as neurospheres (Nph; [Chojnacki & Weiss, 2008]; [Tropepe et al., 1999]), which are considered to be a mixed population of neural stem cells and progenitors of the CNS ([Rao, 1999]; [Zhou & Chiang, 1998]). These cells have been previously used in multiple published studies for the generation of high-yield, high-purity cultures of OPCs from rodents ([Calaora et al., 2001]; [[…] al., 1997]; [Pedraza et al., 2008]). After 24 hr of plating on PDL-coated tissue culture plastic, Nph-OPCs were treated as indicated with differentiation stimuli and further incubated for 72 hr. […] Four images per well were analyzed using a neurite outgrowth module (Molecular Devices, Sunnyvale, CA). We quantified the number of branches and total outgrowth per cell (Figure 1). […] Additionally, nuclear staining by Hoechst allowed the accurate association of branches and processes to their corresponding cell bodies and permitted quantification of total cell numbers in each well. […]

With `C[C@@H](N)[C@H]1CC[C@H](C(=O)Nc2ccncc2)CC1.Cl.Cl` [Y0503, trans-4-[(1 R)-1-aminoethyl]-N-4-pyridinylcyclohexanecarboxamide dihydrochloride] the “MBP and PLP mRNA” value (mouse-derived OPCs) was “increased significantly”, the EC50 ([1]; read-out: OLs processes count / well EC50) was 0.0885 µM and the EC50 ([1]; read-out: OLs processes total length / well EC50) was 0.138 µM. For the same compound, the “Differentiation into O4-positive premyelinating stage” value ([1]; hSC-OPCs treated 48 hr, 21 days culture) was “dose-response differentiation effect” and the “Number of Hoechst-labeled nuclei” value (mouse Nph-OPCs) was 625 ± 88 cells/well.
